For this experiment, the target named is T1, α7-subtype of nicotinic receptors (Rattus norvegicus, UniProt Q05941).
T1 construct: Cerebral cortices from male Wistar rats (150-250 g) are homogenised; from tissue; host or cells: rat cerebral cortex membrane homogenate
The experiment in a line: In vitro inhibition of 3H-α-bungarotoxine binding in rat brain. The note with it: rat cerebral cortex homogenate, 3H-α-bungarotoxine 2 nM, 2 hours at 37° C.

A word on the pIC50: it is the IC50 on a negative log10 scale, so that one unit is a factor of ten.

SMILES strings stand for the structures. pIC50: −log10 of the molar value.

T1 sequence (Q05941 23-502): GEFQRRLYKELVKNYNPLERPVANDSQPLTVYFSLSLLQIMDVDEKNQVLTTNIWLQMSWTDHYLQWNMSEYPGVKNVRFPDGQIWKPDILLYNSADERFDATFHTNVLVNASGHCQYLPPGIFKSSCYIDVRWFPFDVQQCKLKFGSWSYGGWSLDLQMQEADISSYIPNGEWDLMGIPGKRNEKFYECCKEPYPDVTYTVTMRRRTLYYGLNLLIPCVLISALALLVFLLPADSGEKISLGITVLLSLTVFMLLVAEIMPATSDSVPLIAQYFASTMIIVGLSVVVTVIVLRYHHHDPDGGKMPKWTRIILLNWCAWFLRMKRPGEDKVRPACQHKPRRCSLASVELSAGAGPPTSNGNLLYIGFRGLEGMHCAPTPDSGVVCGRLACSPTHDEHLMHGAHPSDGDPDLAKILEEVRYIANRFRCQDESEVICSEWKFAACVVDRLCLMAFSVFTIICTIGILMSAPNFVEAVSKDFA

The molecule `CN1C2CCC1CN(c1ccc(C#Cc3ccccc3)nn1)C2` [Compound B1, 8-Methyl-3-(6-phenylethynyl-pyridazin-3-yl)-3,8-diaza-bicyclo[3.2.1]octane] had a pIC50 of 6.33.

The record behind these values is patent publication US7662812B2, “Diazabicyclic aryl derivatives and their use as chinolinergic ligands at nicotinic acetylcholine receptors” (Neurosearch A/S, priority 2005, dated 2010).
